Results from patent publication US20070072815A1, “Methods and kits to increase the efficiency of oligonucleotide-directed nucleic acid sequence alteration” (priority 2004, published 2007).
“Also recorded” adds a separate entry of the source.

Assays:
DNA of DLD-1-1 cells = assay: Pulsed-field gel electrophoresis of DNA damage (double strand breaks); type: cell-based; settings: 0.75 μM bleomycin or 0.2 μM MMS, 24 hours
Procedure: The cells are released by trypsinization and melted in the agarose inserts. The agarose inserts are incubated in 0.5M EDTA—1% N-laurosylsarcosine—proteinase K (1 mg/ml) at 50° C. for 48 hrs and then washed four times in TE buffer prior to loading on a 1% agarose gel (Pulse-Field Certified Agarose, Bio-Rad, Hercules, Calif.) and DNA separation by pulsed-field gel electrophoresis is carried out for 24 hrs (Bio-Rad, 120° field angle, 60 to 240s switch time, 4 V/cm). The gel is subsequently stained with ethidium bromide and analyzed with AlphaImager™ 2200. (Alpha Innotech Corp., San Leandro, Calif.).
The effects of MMS and bleomycin on oligonucleotide-directed gene alteration are determined as follows. DLD-1-1 cells are seeded in 100 mm dishes at 2×10^6 cells per plate and immediately treated with 0.2 μM MMS or 0.75 μM bleomycin. The cells are then grown for 24 hours, until approximately 50% confluent, and washed twice with PBS. A portion of each population of cells is removed for DNA analysis by pulsed-field electrophoresis, as described in Example 1. The correcting oligo EGFP/72NT (10 μg) is then added and the cells are electroporated as in Example 3. Cells are then analyzed to determine the percentage of cells with corrected eGFP genes as described in Example 3.

DLD-1-1 cells [1] = assay: Cell viability / cell death by propidium iodide FACS
Procedure: Flow cytometry analysis: eGFP fluorescence of corrected cells is measured by a Becton Dickinson FACSCalibur™ flow cytometer (Becton Dickinson, Rutherford, N.J.). Cells are harvested 48 hrs after electroporation and resuspended in FACS buffer (0.5% BSA, 2 mM EDTA, 2 μg/ml propidium iodide in PBS). More specifically, the program is set for the appropriate cell size (forward scatter versus side scatter) and the population of single-cells is gated for analysis. Using the negative control (minus PI, minus GFP) the background fluorescence was set by positioning the cells in the 10^1 decade of the dot plot by adjusting the voltage for FL1 (GFP) and FL2 (PI). The composition is then set for multi-fluorochrome experiments using a GFP control sample containing no PI and increasing the compensation to bring the signal toward the FL1 parameter. Finally, the last control, PI and no GFP is used to increase the compensation to bring the signal toward the FL2 parameter. Samples of 50,000 cells each are analyzed and those cells being GFP positive and PI negative are scored as corrected cells.
For cells that were not previously treated with caffeine, caffeine is added to the media to a final concentration of 4 mM in the 60 mM dish immediately following electroporation (the “recovery phase”). For cells that were pre-treated with caffeine, there is no addition of caffeine during the recovery phase. After 24 hrs of recovery, the media is changed and caffeine (4 mM final concentration) is added back to the culture. After 48 hrs of recovery, the samples are read by FACS: eGFP fluorescence reflects gene alteration (correction), and propidium iodide (PI) staining reflects cellular viability.

[2] = system: mutant eGFP gene in DLD-1-1 cells; assay: eGFP gene correction (oligonucleotide-directed sequence alteration) in DLD-1-1 cells, FACS readout; type: cell-based; settings: 0.2 μM MMS 24 hours before electroporation, 10 μg oligo
DLD-1-1 cells [3] = assay: BrdU incorporation (actively replicating forks); type: cell-based; settings: 24 hour treatment; 500 μM ddC, ddI or AraC (FIG. 17B)
Procedure: (§1) For cell cycle analysis, 1×10^6 cells are plated 24 hrs before the treatment with drugs and after 24 hrs of treatment, cells are trypsinized, resuspended in 300 μl cold PBS and fixed by adding 700 μl cold ethanol. Cells are then resuspended in 1 ml of PBS containing 500 µg/ml RNaseA and […] propidium iodide and analyzed for DNA content.
(§2) The resulting cells are then either analyzed by FACS, or the percentage of cells in S phase is determined by BrdU incorporation. FIG. 8 presents the results of both sets of experiments.
As stated above, the lack of stimulation observed in cells treated with AraC could be explained by the reduced number of cells passing through S phase or the absence of actively replicating forks. If true, we might predict that a rise in the gene repair frequency would appear if the cells are released from the AraC block and replication forks are allowed to restart prior to the electroporation of the oligonucleotide. We test this prediction by treating the cells with AraC for 24 hrs and then releasing them by washing out the drug at specific times. We measure the level of BrdU incorporation at the time of electroporation and evaluate the frequency of correction 48 hrs later.

[4] = system: mutant eGFP gene in DLD-1-1 cells; assay: eGFP gene correction (oligonucleotide-directed sequence alteration) in DLD-1-1 cells, FACS readout; type: cell-based; settings: for correction efficiency: cells synchronized by double thymidine block, then 10 mM thymidine 24 hours
Procedure: Cell line and culture conditions: DLD-1 cells are obtained from ATCC (American Type Cell Culture, Manassas, Va.). DLD-1 integrated clone 1 (DLD-1-1) is obtained by integration of the vector pEGFP-N3 containing a single point mutation (TAG) in the eGFP gene, as described in copending U.S. patent application Ser. No. 10/986,418, filed Nov. 10, 2004 (“Mammalian Cell Lines for Detecting, Monitoring, and Optimizing Oligonucleotide-Mediated Chromosomal Sequence Alteration”). Cells are grown in RPMI 1640 medium with 2 mM glutamine, 4.5 g/L glucose, 10 mM HEPES, 1 mM sodium pyruvate and supplemented with 10% FBS. Cells are maintained at 5% CO2, 37° C. and under selection in 200 μg/ml G418 (Gibco, Invitrogen Co., Carlsbad, Calif.).
eGFP gene correction: Cells grown in complete medium supplemented with 10% FBS are trypsinized and harvested by centrifugation. The cell pellet is resuspended in serum-free medium at a density of 1×10^6 cells/100 μl and transferred to a 4 mm gap cuvette (Fisher Scientific, Pittsburgh, Pa.). The oligonucleotide is then added at a concentration of 4 μM and the cells are electroporated (LV, 250V, 13 msec, 2 pulses, 1 second interval) using a BTX ECM830 apparatus (BTX, Holliston, Mass.). The cells are then transferred to a 60 mm dish containing fresh medium supplemented with 10% FBS and incubated for 48 hrs at 37° C. before harvesting for FACS analysis.
The percentage of converted cells in a whole population is then calculated by CellQuest™ (Becton Dickinson) and GFP/PI programs. The correction efficiency is determined by dividing the number of eGFP positive cells by the number of cells analyzed in each experiment (usually 50,000 cells). Each clone is tested three times to determine the standard deviation of the correction efficiency, with standard deviation calculated using Microsoft Excel.
The experimental strategy involves the introduction of oligonucleotides into DLD-1-clone 1 cells by electroporation followed by phenotypic readout of the corrected eGFP gene, 48 hours later. The correcting oligonucleotide (EGFP3S/72NT) is 72 bases in length (72-mer), complementary to the non-transcribed strand of the mutant eGFP gene but designed to create a single mismatch in the third base of codon 67 (see FIG. 1A). It directs conversion of a TAG→TAC codon which enables phenotypic expression of eGFP, which can be detected by FACS. FIG. 1B outlines the sequence of the target gene, the 72-mer and a nonspecific 74-mer used as a control.
Oligonucleotide-Directed Sequence Alteration: The resulting synchronized populations of cells, and asynchronous controls, are grown in complete medium supplemented with 10% FBS and trypsinzed and harvested by centrifugation at 1500 rpm for 5 minutes. The cell pellet is resuspended in fresh serum-free medium at a density of 2×10^6 cells/100 μl. The entire cell suspension is mixed with 20 μg of EGFP/72NT and transferred into a 4 mm gap cuvette (Fisher Scientific, Pittsburgh, Pa., USA) followed by electroporation with two 250V pulses, each 13 ms in duration, with one second between pulses, unipolar.
Cells are incubated at room temperature for 30 min. […] Frequency of converted cells are calculated by CellQuest™ and GFP/PI programs.
Double Thymidine Block: Cells are synchronized in G1 or at the G1/S border by a double thymidine block. Twenty-four hours prior to the addition of any agent (HU, etc.), cells are plated at a density of 0.5×10^6 cells per 100 mm dish, followed by incubation in 2 mM thymidine (Sigma) for 16 hrs, washed and released in fresh medium for 10 hrs, then incubated in 2 mM thymidine for an additional 15 hrs.
FACS is then used to analyze 50,000 cells from each population to determine the percentage of cells expressing functional eGFP, as described in Example 1.

DLD-1-1 cells [5] = assay: Cell cycle analysis (DNA content by FACS), cells in S phase; type: cell-based
Procedure: as §1
The effect of cell cycle on the efficiency of ODSA is assessed by synchronizing a population of DLD-1-1 cells with mimosine, which arrests cells in early S phase, and serum starvation. Cells are seeded at a density of 0.8×10^6 per 100 mm dish, attached for 20 hours and then cultured in RMPI-1640 medium containing 0.2% fetal bovine serum (FBS). These cells are grown for 48 hours followed by treatment with 0.1 mM mimosine (Sigma, St. Louis, Mo., USA) for 20 hours. Cell are washed twice with PBS and released at various times into fresh medium complemented with 10% FBS before electroporation. Cells are rinsed once with PBS, trypsinized and harvested by centrifugation and resuspended in PBS containing 10 μg/ml propidium iodide, 0.03% Triton-100 and 1 mg/ml RNase. Cells are incubated at room temperature for 1 hour before the measurement of DNA content by FACSCalibur™ flow cytometer. The percentage of cells at various stages of the cell cycle is determined by ModFit L™ software (Verity Software House, Inc., Topsham, Me., USA).
as §2

[6] = system: α-galactosidase A (GLA) activity in Fabry's cell line DMN-1; assay: GLA activity in Fabry's cells after ODSA; type: cell-based, human; settings: cells synchronized by DTB, 500 μM ddC
Text: (§3) Cell line DMN-1, a human fibroblast cell line derived from a human patient with Fabry's disease, is obtained from the National Institutes of Health (NIH). These cells are used to measure the efficiency of correction of a mutant allele of α-galactosidase A (GLA) using methods of the present invention. The specific disease-causing mutation in the Fabry's cell line used herein is A143P, caused by a G→C mutation in the gene. See Branton et al., Medicine (Baltimore) (2002) 81(2): 122-38.
(§4) All four oligonucleotides are used to effect ODSA substantially as described in Example 1, with the exception that cells are transfected with oligonucleotides, rather than electroporated. Oligos are added at 5 μg, 10 μg or 30 μg per reaction. After ODSA is performed, cells are cultured and assayed for GLA activity according to the method of Brady, as described in Medin et al., Proc. Natl. Acad. Sci. (USA) (1996) 93:7917-22, the disclosure of which is incorporated herein by reference in its entirety. The GLA activity is used as a measure of gene correction by comparing the activities in treated versus untreated cultures. The correction efficiency is subsequently confirmed by sequencing of the locus of mutation in a number of treated cells.
[…] Unlike the experiments involving correction of eGFP in DLD-1-1 cells described in Example 1, however, certain of the agents (VPA, caffeine, TSA) in the experiments in this example are not added before transfection, but are instead added only after transfection, during the recovery period.
(§5) The means of introducing oligonucleotide into the target cells also differs from previous examples, with transfection in the presence of the transfection enhancing agent FuGENE™ 6 (FG) (Roche Diagnostics Corp., Indianapolis, Ind., USA) being used rather than electroporation. Each transfection reaction includes 100 μl of target cells and 12 μl of FG unless otherwise indicated, despite the fact that FG is not explicitly listed for each datapoint in the relevant figures. Otherwise the procedures used in the DLD-1-1 experiments and the Fabry's experiments are similar.
The results of a further series of experiments are shown at FIG. 15D, where the data are presented as GLA activity as nanomolar (nM) concentration of the product of the GLA assay generated per hour per unit protein concentration (as are the data in FIGS. D and E).

[7] = system: mutant allele (A143P) of α-galactosidase A (GLA) in Fabry's cell line DMN-1; assay: Correction efficiency of mutant GLA allele in Fabry's cells; type: cell-based, human; settings: VP16 1-50 μM; thymidine 2-50 mM; with or without correcting oligonucleotide
Text: as §3, §4
As in the previous examples, target cells are treated with HU, VP16 or CPT prior to transfection with the correcting oligonucleotide. Unlike the experiments involving correction of eGFP in DLD-1-1 cells described in Example 1, however, certain of the agents (VPA, caffeine, TSA) in the experiments in this example are not added before transfection, but are instead added only after transfection, during the recovery period.
as §5
The same experiment as described with respect to FIG. 15A is repeated in the presence of various agents and treatments to evaluate whether embodiments of the present invention can increase gene alteration (in this example, correction) efficiency. […] Bars represent the correction efficiencies observed in the various experiments. Unless otherwise indicated, all experiments include 10 μg of 49T/gg in addition to any other agent used to treat the cells.

Compound: COS(C)(=O)=O [MMS, methyl methanesulfonate]
- DNA damage (DNA of DLD-1-1 cells): effect DNA damage
- effect on cell death (DLD-1-1 cells [1]; 0.2 μM MMS): Cell death is not increased
- effect on correction efficiency [2]: more than doubles the correction efficiency; also recorded: doubles correction efficiency

Compound: Nc1ccn([C@H]2CC[C@@H](CO)O2)c(=O)n1 [ddC, 2′3′-dideoxycytidine]
- BrdU uptake (cells actively incorporating DNA bases) (DLD-1-1 cells [3]): 71.8%
- toxicity (DLD-1-1 cells [1]; ddC levels higher than 750 μM (data not shown)): cellular toxicity
- correction levels ([4]; cells treated with ddC alone (FIG. 20)): 2.9%
- effect on correction efficiency (increase) ([4]; ddC 24 hrs before electroporation, 500-750 μM): more than two-fold; also recorded: approximately two- to three-fold; also recorded: dose-dependent increase
- cells in S phase (DLD-1-1 cells [5]; 24 hour treatment, 500 μM ddC, ddI or AraC (FIG. 17A)): 70%
- increase of GLA activity compared with untreated cells [6]: approximately two-fold; also recorded: doubles DLA activity

Compound: Cc1cn([C@H]2C[C@H](O)[C@@H](CO)O2)c(=O)[nH]c1=O [thymidine]
- correction efficiency in synchronized cells relative to asynchronous cells ([4]; 1 mM HU or 10 mM thymidine, DTB synchronized vs asynchronous): over seven times
- effect of synchronization by double thymidine block on correction efficiency ([4]; 2 mM thymidine 16 hrs, release 10 hrs, 2 mM thymidine 15 hrs, no other agent): increases correction efficiency
- effect on correction efficiency in asynchronous cells ([4]; 10 mM thymidine 24 hours): does not enhance correction efficiency
- correction efficiency [4]: 7.5%
- correction efficiency ([4]; listed as Thymidine): over 7%
- proportion of cells in S phase (DLD-1-1 cells [5]; after double thymidine block): 1.5%
- effect on correction efficiency [7]: little effect on correction efficiency

Compound: bleomycin
- DNA damage (DNA of DLD-1-1 cells): effect DNA damage
